This passage reports EC50 results from PubChem BioAssay AID2423 (Broad Institute, 2010).

Results filed as inconclusive are left out. Activity calls are given as the source filed them. No rule for the calls is given here.

Broadly, the EC50 is the concentration giving half of the maximal effect.

The assay deals with C. albicans CaCi-8 + fluconazole, Alamar Blue growth, 48 h. Nature of the assay: resistant C. albicans growth inhibition with fluconazole, dose response, CaCi-8 strain, Alamar Blue fluorescence (AID 2423). Background: The colour change of resazurin is a common sign of viable cells or microbes.

Turning to `Cc1ccc(S(=O)(=O)Nc2ccc(O)c3ncccc23)cc1`, the EC50 is 3.31 µM.

As for `C=CCn1c(O)c(N=NC(=S)Nc2ccccc2C)c2cc(S(=O)(=O)N3CCOCC3)ccc21`, the EC50 was 1.19 µM.

For the compound `Cc1ccc(S(=O)(=O)CC(C)N2CCOCC2)c(S(=O)(=O)CC(C)N2CCOCC2)c1` (stereo not given), the EC50 is > 16 µM (inactive).

Consider `CCCOc1cccc(-c2nnc(NC(=O)c3ccco3)s2)c1`, for which the EC50 was 0.622 µM.

Take `C[N+]1(CC(=O)OC2CCCCCCCCCCC2)CCCC1`: the EC50 was 4.94 µM.

Take `COc1ccnc(Oc2cccc(C(F)(F)F)c2)c1C(=O)N/C=N/OCc1ccccc1F`: the EC50 is > 15 µM (inactive).

Turning to `Oc1c(CN2CCN(c3ccccc3)CC2)cc(Br)c2cccnc12`, the EC50 was 1.23 µM.

In the case of `CCn1c(O)c(N=NC(=O)c2cccs2)c2ccccc21`, the half-maximal effective concentration (EC50) was 1.32 µM.

As to `O=C(O)COc1ccccc1C(Nc1cccnc1)c1cc(Cl)c2cccnc2c1O` (stereo not given), the EC50 was 9.89 µM.

`COc1ccccc1N=Nc1ccc(O)c2ncccc12`: the EC50 was 0.871 µM.

For the compound `COc1ccc(-n2nc(C(=O)NCC(=O)N3CCN(c4ccccc4)CC3)c3ccccc3c2=O)c(OC)c1`, the EC50 is 0.698 µM.

Turning to `CC(C)(C)C(=O)NC(=S)NNC(=O)C(c1ccccc1)c1ccccc1`, the EC50 is 2.16 µM.

As for `Cc1ccc(C(c2cc(Cl)c3cccnc3c2O)N2CCN(C)CC2)cc1` (stereo not given), the EC50 was 0.704 µM.

Consider `CCn1c(COc2ccc(=O)n(-c3ccccc3)n2)nnc1SCc1cccc(OC)c1`, for which the EC50 was > 16 µM (inactive).

Consider `Cc1ccc2c(c1)sc(-c1ccc(N(C)C)cc1)[n+]2C`, for which the EC50 was 0.193 µM.

Regarding `Cc1ccc(-n2c(-c3ccccc3)c[n+]3c2CCC3)cc1`, the EC50 was 8.58 µM.

As for `CCN(CC)C(=O)/C(=C/c1ccc2c(c1)OCO2)NC(=O)c1ccc(Br)cc1`, the EC50 is 1.2 µM.

Turning to `COc1ccc(N(C(=O)Cn2nnc3ccccc32)C(C(=O)NC(C)(C)C)c2ccc(OC)c(O)c2)cc1` (stereo not given), the EC50 is 2.21 µM.

Take `C(C#CCCCCCCCCC[n+]1ccccc1)#CCCCCCCCCC[n+]1ccccc1`: the EC50 was 3.52 µM.

For the compound `O=C(CCc1ccccc1)NNC(=S)NC(=O)c1ccccc1`, the EC50 was 3.13 µM.

`O=C(CN1CCCc2ccccc21)N/N=C/c1c(O)ccc2ccccc12`: the EC50 was 1.2 µM.

As to `Cc1cccc(-n2c(SCc3cc(=O)n4ccsc4n3)nc3ccccc32)c1`, the EC50 was > 15 µM (inactive).

In the case of `O=C(Oc1cc2oc(=O)cc(-c3ccccc3)c2cc1Cl)C1CCCCC1`, the EC50 was 1.21 µM.

In the case of `O=C1CN2C(=Nc3ccc(Cl)cc3C2c2ccccc2)CN1` (stereo not given), the EC50 is 3.3 µM.

In the case of `O=C(CSc1cccc[n+]1[O-])CSc1cccc[n+]1[O-]`, the EC50 is 13.4 µM.

Regarding `Oc1[nH]c2c(Cl)cc(Cl)cc2c1N=NC(=S)NCC1CCCO1` (stereo not given), the EC50 was 3.58 µM.

For the compound `[O-][n+]1cccc2c(Br)cc(Br)c(O)c21`, the EC50 is 0.652 µM.

For `Cc1ccc(C)c(NC(=S)NNC(=O)c2csc(C(C)C)c2)c1`, the EC50 is 1.21 µM.

For the compound `O=C(c1ccc2c(c1)OCO2)N1CCC2(CC1)Oc1ccc(Cl)cc1C(=O)C21CC(c2cccnc2)=NO1` (stereo not given), the EC50 is 0.438 µM.

Consider `Cc1noc2ncnc(Sc3ccc(Br)cc3)c12`, for which the EC50 was 2.64 µM.

`CC(=O)Nc1cccc(NC(=O)C2CCCN2C(=O)Nc2ccc(Cl)cc2)c1` (stereo not given): the EC50 is > 16 µM (inactive).

Take `CCc1ccccc1NC(=S)N=Nc1c(O)n(C)c2ccc(S(=O)(=O)N3CCOCC3)cc12`: the EC50 is 5.16 µM.

Turning to `CCCCNC(=O)c1cn(C)c2ccc(S(=O)(=O)N3CCCC3)cc2c1=O`, the EC50 is > 15 µM (inactive).

As to `O=S(=O)(c1ccc(Cl)s1)N1CCCc2cccc(O)c21`, the EC50 is > 15 µM (inactive).

Take `COc1ccc(C)cc1N=Nc1ccc(O)c2ncccc12`: the EC50 was 0.656 µM.

For `O=C(c1cc2c(s1)-c1ccccc1OC2)N1CCC2(CC1)OCCO2`, the EC50 is 2 µM.

As for `Cc1ccc(S(=O)(=O)/N=C2/NC(=O)/C(=C\c3cc(Br)cc(Br)c3O)S2)cc1`, the EC50 is 9.68 µM.

For the compound `O=C(COc1ccc([N+](=O)[O-])cc1)NNC(=S)NC(=O)c1ccc(Br)cc1`, the EC50 is 2.54 µM.

For the compound `C(#Cc1ccccc1)C[N+]1(CC#Cc2cccc3ccccc23)CCCC1`, the EC50 is 5.63 µM.

For the compound `Cc1cc(N/N=C/c2c(O)ccc3ccccc23)nc(-c2ccccc2O)n1`, the EC50 is 0.133 µM.

Regarding `CN(C)S(=O)(=O)c1cccc(NC(=S)N/N=C/c2ccc(O)c(O)c2O)c1`, the EC50 is 2.67 µM.

Regarding `COc1ccc(O)c(/C=N/NC(=O)c2ccc(N3CCCC3=O)cc2)c1`, the EC50 was > 16 µM (inactive).

On to `O=C(N/N=C/c1cc([N+](=O)[O-])ccc1O)C1C2CCCCC21` (stereo not given), for which the EC50 was 2.16 µM.

For `Cc1csc2ncnc(NCCc3ccccn3)c12`, the EC50 was 6.03 µM.

Regarding `O=S(=O)(Nc1nc2ccccc2s1)c1ccc(Br)s1`, the EC50 was 1.73 µM.

In the case of `COc1ccc(-n2c(-c3ccc(Br)cc3)c[n+]3c2SC(C)C3)cc1` (stereo not given), the EC50 was 6.77 µM.

As for `COc1cnc(-c2ccccn2)nc1Sc1cccc(Cl)c1`, the EC50 was > 16 µM (inactive).

With `COc1cccc(/C=N/Nc2cc(-n3nc(C)cc3-c3ccccc3)ncn2)c1O`, the EC50 was 0.662 µM.

With `Cc1ccc(C(=O)c2coc3c2C(=O)C(=O)c2ccccc2-3)cc1`, the EC50 was 0.146 µM.

Regarding `CC(C)COCc1ccc(O)c2ncccc12`, the concentration giving a half-maximal response (EC50) was 1.47 µM.

For `CCc1nnc(NC(=O)CN2CCN(c3nc(-c4ccccc4)cs3)CC2)s1`, the EC50 was 0.371 µM.

Consider `COC(=O)Cn1nc(-c2ccccc2)c2ccccc21`, for which the EC50 was 2.28 µM.

Consider `COc1ccc(-c2n[nH]c(C)c2-c2cnn(-c3ccccc3)c2)c(O)c1`, for which the EC50 is 9.76 µM.

Turning to `O=c1cc(CSc2ccc(Cl)cc2)nc(-c2ccccn2)[nH]1`, the EC50 is 0.531 µM.

For `Cc1cccc(C(=O)NNC(=S)NC(=O)c2cccs2)c1`, the EC50 is 1.46 µM.

Take `C=CCNC(=S)N/N=C(\C)c1ccccn1`: the EC50 was 2.3 µM.

Regarding `CCOc1ccc2nc3cc(NCc4ccc(OC)cc4)ccc3c(N)c2c1`, the EC50 is 4.28 µM.

For `CCCC(=O)NC(c1cccs1)c1cc(Cl)c2cccnc2c1O` (stereo not given), the EC50 was 0.729 µM.

`CCN1/C(=C/c2ccc3cc(C)ccc3[n+]2CC)Sc2ccc3sccc3c21`: the EC50 is under 0.12 µM.

Turning to `Brc1ccc(N/N=C(/N=Nc2nn[nH]n2)c2ccccc2)cc1`, the EC50 was 5.6 µM.

Consider `COc1cccc(CN2C(=O)C3(C(C#N)=C(N)OC4=C3C(=O)CCC4)c3ccccc32)c1` (stereo not given), for which the EC50 was 2.15 µM.

`O=C(N/N=C/c1cc([N+](=O)[O-])ccc1O)C(O)(c1ccccc1)c1ccccc1`: the EC50 was 5.79 µM.

As for `Cc1nn(-c2ccccc2)c(C)c1C(=O)OC/C(O)=C(\C#N)c1nc2ccccc2[nH]1`, the EC50 is 1.03 µM.

On to `CC(C)OP(=O)(c1ccc(N(C)C)cc1)C(O)c1ccccc1` (stereo not given), for which the EC50 is 4.32 µM.

As for `COCCN(C(=O)CSc1nnc(-c2cccc(C)c2)n1C)c1c(N)n(Cc2ccccc2)c(=O)[nH]c1=O`, the EC50 is > 16 µM (inactive).

Take `CC(=O)Oc1ccc2c(=O)c(-c3nc4ccccc4s3)coc2c1`: the EC50 is 3.52 µM.

As for `Cc1c(Cl)ccc2c1NC(=O)[C@]21N[C@@H](Cc2ccccc2)[C@H]2C(=O)N(c3ccc(F)cc3)C(=O)[C@H]21`, the EC50 was under 0.12 µM.

Turning to `COc1ccc2[nH]c3c(C)c4ccncc4c(C)c3c2c1`, the EC50 was 1.44 µM.

Turning to `COc1ccccc1N1CCN(Cc2cc(Br)c(O)c3ncccc23)CC1`, the 50% effective concentration (EC50) is 4.49 µM.

For `COc1ccc(C2N=C(Nc3ccc(C)cc3)Nc3nc(C)cc(=O)n32)cc1` (stereo not given), the EC50 was > 16 µM (inactive).

In the case of `COc1ccc(-c2cc(-c3c(O)c(OC)c4occc4c3OC)[nH]n2)cc1OC`, the EC50 was > 16 µM (inactive).

As for `Cc1noc2ncnc(Sc3ccc(Cl)cc3)c12`, the EC50 is 2.93 µM.

As for `O=[N+]([O-])c1cccc(C=Nc2cccc3ccccc23)c1O`, the EC50 was 12.2 µM.

Regarding `CCCC(=O)NC(c1ccccc1Cl)c1ccc2cccnc2c1O` (stereo not given), the EC50 is 0.516 µM.

With `Cc1ccc(C(=O)Cn2cccn2)cc1`, the EC50 is 12.7 µM.

Consider `Cc1ccc(NC(=O)NNC(=O)c2cc3ccccc3cc2O)cc1C`, for which the EC50 was > 16 µM (inactive).

Take `O=C(Nc1cccc2ccccc12)c1ccc([N+](=O)[O-])o1`: the EC50 was 0.726 µM.

As for `COc1ccc(-c2nc(CN3CCN(c4cc(C)nc(C)c4)CC3)c(C)o2)c2ccccc12`, the EC50 is 2.49 µM.

In the case of `Cc1nc(SCc2ccc(Cl)c(Cl)c2)ncc1C(=O)O`, the EC50 was > 15 µM (inactive).

For `Cc1ccc(S(=O)(=O)c2c(C)nn(C(C)(C)C)c2OC(=O)c2ccc(Br)o2)cc1`, the EC50 was > 16 µM (inactive).

As to `O=C(N/N=C/c1cc(Br)c(O)c(Br)c1)c1cc2c(ccc3ccccc32)o1`, the EC50 is 0.915 µM.

For `O=c1[nH]c(-c2ccccn2)nc(C(F)(F)F)c1Br`, the EC50 is 0.495 µM.

In the case of `Cc1cc(C)c(-c2cc(NC(=O)COC(=O)c3ccc(C#N)cc3)n(-c3ccccc3)n2)cc1C`, the EC50 was 0.397 µM.

Turning to `Cc1ccc2[nH]c(=O)c(C3C(C#N)=C(N)Oc4c3ccc3cccnc43)cc2c1` (stereo not given), the EC50 was 0.971 µM.

In the case of `CCOC(=O)N=Nc1c2ccccc2c2nc3no[nH]c3nc12`, the EC50 was > 15 µM (inactive).

Consider `CCCCC(=O)NC(c1ccccc1)c1ccc2cccnc2c1O` (stereo not given), for which the EC50 was 0.752 µM.

For the compound `c1ccc2c(c1)CCN(c1ncnc3c1[nH]c1ccccc13)C2`, the EC50 was 0.558 µM.

Consider `Brc1ccc(-c2nnc3sc(CN4CCN(c5ccccc5)CC4)cn23)cc1`, for which the concentration for a half-maximal effect (EC50) is 0.288 µM.

On to `COC(=O)C1=NN(C(=O)c2ccc(Cl)cc2)C(O)(c2ccccc2)C1` (stereo not given), for which the EC50 is > 16 µM (inactive).

On to `CCCCCc1ccc(OCCCC[n+]2ccccc2)c(CCCCC)c1`, for which the EC50 was > 16 µM (inactive).

For `CC(C)=CCc1cc2c(=O)c3c(O)c4c(cc3oc2c(O)c1O)OC(C)C4(C)C` (stereo not given), the EC50 was 6.36 µM.

In the case of `O=C(COc1ccc(Cl)cc1Cl)N1CCCN(C(=O)COc2ccc(Cl)cc2Cl)CC1`, the EC50 is 1.48 µM.

Turning to `CC1=C(CC[C@@H](C)CO)OC2CC3C4CCC5CC(O)CCC5(C)C4CC(=O)C3(C)C12` (stereo not given in full), the EC50 is 0.135 µM.

Take `CCN(CC)c1ccc(/C=C/c2ccc3ccc(OC)cc3[n+]2CC)cc1`: the EC50 is 0.149 µM.

Consider `COc1ccc(-c2cc(N)n(S(=O)(=O)c3c(F)c(F)c(F)c(F)c3F)n2)cc1OC`, for which the EC50 was > 16 µM (inactive).
